In ChEMBL document CHEMBL3217494, “Selective inhibition of EGFR and VEGFR2 tyrosine kinases controlled by a boronic acid substituent on 4-anilinoquinazolines” (Medchemcomm, 2010):
Calls of active or inactive are those of the source. The calls are words filed in the database; no cut-off is given here.

What was measured:
[1] = biological target: Receptor tyrosine-protein kinase erbB-2 (Homo sapiens, UniProt P04626); test: Inhibition of HER2 catalytic domain (unknown origin) assessed as reduction of poly(Glu:Tyr) substrate phosphorylation after 20 mins by ELISA
Sequence of Receptor tyrosine-protein kinase erbB-2 (P04626 whole entry, the tested form may be a part): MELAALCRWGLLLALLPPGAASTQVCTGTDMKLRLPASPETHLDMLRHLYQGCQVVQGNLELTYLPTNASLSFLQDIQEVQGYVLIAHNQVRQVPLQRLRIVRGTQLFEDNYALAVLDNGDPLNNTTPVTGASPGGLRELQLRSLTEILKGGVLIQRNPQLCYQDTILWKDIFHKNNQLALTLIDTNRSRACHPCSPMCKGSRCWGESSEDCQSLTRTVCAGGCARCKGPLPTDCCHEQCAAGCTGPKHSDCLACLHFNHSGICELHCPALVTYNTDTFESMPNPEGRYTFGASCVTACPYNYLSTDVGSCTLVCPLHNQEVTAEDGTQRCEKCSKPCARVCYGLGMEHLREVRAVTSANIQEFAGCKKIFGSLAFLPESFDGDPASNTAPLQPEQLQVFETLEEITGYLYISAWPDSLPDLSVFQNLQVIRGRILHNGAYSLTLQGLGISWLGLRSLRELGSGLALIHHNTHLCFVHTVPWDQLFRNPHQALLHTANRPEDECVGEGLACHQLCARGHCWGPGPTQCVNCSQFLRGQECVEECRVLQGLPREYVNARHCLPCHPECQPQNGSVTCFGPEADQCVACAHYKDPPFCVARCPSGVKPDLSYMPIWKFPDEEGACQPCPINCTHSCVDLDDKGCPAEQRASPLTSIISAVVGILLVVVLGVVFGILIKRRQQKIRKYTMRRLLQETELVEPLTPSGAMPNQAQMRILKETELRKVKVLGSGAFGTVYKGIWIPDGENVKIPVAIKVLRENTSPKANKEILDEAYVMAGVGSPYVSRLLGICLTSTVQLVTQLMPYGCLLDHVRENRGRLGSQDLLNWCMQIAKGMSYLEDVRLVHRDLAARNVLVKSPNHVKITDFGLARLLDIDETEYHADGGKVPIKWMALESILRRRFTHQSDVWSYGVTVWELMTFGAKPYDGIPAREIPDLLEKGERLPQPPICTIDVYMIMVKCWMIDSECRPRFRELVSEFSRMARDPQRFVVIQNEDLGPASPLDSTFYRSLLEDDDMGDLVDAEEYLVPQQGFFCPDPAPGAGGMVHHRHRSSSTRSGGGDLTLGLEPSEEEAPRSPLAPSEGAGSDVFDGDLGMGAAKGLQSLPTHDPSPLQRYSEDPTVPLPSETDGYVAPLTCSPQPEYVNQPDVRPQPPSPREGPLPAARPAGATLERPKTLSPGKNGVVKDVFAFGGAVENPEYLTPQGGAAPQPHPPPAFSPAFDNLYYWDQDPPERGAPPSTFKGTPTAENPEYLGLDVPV

[2] = biological target: Vascular endothelial growth factor receptor 1 (Homo sapiens, UniProt P17948); test: Inhibition of Flt-1 catalytic domain (unknown origin) assessed as reduction of poly(Glu:Tyr) substrate phosphorylation after 20 mins by ELISA
Sequence of Vascular endothelial growth factor receptor 1 (P17948 whole entry, the tested form may be a part): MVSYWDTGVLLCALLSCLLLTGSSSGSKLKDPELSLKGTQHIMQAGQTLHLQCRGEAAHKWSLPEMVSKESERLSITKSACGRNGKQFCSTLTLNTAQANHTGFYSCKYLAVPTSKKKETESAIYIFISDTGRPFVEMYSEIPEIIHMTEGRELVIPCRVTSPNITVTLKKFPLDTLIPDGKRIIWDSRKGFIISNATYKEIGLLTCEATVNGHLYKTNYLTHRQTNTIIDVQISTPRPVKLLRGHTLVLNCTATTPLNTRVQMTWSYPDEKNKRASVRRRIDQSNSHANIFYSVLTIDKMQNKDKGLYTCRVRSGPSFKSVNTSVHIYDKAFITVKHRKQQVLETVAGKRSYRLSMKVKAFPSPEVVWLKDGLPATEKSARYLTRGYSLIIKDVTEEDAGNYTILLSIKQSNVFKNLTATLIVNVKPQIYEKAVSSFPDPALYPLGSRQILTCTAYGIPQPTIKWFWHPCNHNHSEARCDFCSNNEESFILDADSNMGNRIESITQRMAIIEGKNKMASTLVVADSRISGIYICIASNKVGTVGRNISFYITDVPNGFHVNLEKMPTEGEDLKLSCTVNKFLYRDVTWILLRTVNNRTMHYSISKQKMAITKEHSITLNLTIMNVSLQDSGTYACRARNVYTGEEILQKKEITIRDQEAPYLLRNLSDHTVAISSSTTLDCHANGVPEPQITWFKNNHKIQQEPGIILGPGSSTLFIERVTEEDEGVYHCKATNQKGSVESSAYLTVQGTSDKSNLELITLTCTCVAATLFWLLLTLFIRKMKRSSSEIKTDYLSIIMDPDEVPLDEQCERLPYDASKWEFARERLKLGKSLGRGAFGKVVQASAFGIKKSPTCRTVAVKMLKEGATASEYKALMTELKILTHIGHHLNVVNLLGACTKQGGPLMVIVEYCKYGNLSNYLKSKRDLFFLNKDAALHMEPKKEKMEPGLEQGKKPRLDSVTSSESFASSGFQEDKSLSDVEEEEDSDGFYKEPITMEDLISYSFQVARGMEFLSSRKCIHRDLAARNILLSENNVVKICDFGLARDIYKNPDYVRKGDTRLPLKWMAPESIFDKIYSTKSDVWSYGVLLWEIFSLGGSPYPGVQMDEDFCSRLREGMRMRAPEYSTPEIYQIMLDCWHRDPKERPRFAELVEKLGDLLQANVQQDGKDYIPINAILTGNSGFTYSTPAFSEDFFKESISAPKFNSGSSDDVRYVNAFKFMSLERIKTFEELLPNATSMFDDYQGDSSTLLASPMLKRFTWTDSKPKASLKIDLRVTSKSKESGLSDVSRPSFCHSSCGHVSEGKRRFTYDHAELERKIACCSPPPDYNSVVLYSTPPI

[3] = biological target: T1, Epidermal growth factor receptor (Homo sapiens, UniProt P00533); test: Inhibition of EGFR in human A431 cells assessed as decrease in EGF-induced Akt phosphorylation at 1 uM by immunoblot analysis; assay type: cell-based; conditions: A-431
T1 sequence (P00533 whole entry): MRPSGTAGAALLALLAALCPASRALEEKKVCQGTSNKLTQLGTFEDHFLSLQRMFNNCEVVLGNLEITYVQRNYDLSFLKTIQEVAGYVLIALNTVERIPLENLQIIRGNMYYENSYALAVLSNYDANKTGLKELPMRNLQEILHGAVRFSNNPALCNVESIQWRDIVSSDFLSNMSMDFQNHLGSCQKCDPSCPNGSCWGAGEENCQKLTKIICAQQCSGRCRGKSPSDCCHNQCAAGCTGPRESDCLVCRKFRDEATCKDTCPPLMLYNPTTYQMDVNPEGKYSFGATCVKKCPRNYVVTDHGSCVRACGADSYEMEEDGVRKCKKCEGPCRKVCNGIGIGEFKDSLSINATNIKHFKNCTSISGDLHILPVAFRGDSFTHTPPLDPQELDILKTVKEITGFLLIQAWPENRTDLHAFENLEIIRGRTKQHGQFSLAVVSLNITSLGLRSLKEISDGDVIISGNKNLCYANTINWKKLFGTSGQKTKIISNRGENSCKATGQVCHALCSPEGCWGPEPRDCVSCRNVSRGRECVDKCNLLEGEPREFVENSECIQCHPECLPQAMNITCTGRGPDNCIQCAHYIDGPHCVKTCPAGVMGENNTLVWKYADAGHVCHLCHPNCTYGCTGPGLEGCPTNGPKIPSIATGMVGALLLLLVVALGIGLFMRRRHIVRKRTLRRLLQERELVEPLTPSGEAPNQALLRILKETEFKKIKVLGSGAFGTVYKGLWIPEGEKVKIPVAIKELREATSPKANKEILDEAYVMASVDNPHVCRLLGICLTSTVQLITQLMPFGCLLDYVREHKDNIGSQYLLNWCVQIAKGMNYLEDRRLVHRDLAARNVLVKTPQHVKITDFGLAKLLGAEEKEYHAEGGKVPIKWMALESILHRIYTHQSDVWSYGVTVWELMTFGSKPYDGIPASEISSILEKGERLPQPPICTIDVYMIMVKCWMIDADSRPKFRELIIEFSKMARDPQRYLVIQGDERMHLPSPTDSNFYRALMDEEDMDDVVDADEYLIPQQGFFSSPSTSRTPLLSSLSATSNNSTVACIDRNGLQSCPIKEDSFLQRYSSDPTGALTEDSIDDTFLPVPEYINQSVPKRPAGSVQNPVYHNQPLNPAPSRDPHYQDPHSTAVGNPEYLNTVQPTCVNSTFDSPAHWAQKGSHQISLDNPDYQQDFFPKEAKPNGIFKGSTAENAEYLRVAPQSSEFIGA

[4] = biological target: T1, Epidermal growth factor receptor; test: Inhibition of EGFR in human A431 cells assessed as decrease in EGF-induced ERK phosphorylation at 1 uM by immunoblot analysis; assay type: cell-based; conditions: A-431
[5] = biological target: T2, Vascular endothelial growth factor receptor 2 (Homo sapiens, UniProt P35968); test: Inhibition of KDR catalytic domain (unknown origin) assessed as reduction of poly(Glu:Tyr) substrate phosphorylation after 20 mins by ELISA
[6] = biological target: T1, Epidermal growth factor receptor; test: Inhibition of EGFR catalytic domain (unknown origin) assessed as reduction of poly(Glu:Tyr) substrate phosphorylation after 20 mins by ELISA
[7] = biological target: T1, Epidermal growth factor receptor; test: Inhibition of EGF-induced EGFR autophosphorylation in human A431 cells at 1 uM by immunoblot analysis; assay type: cell-based; conditions: A-431
[8] = biological target: T2, Vascular endothelial growth factor receptor 2; test: Inhibition of VEGF-induced KDR phosphorylation in human HUVEC cells at 1 uM by immunoblot analysis; assay type: cell-based

Row | Structure (SMILES) | IC50 [1] | IC50 [2] | inhibition [3] | inhibition [4] | IC50 [5] | IC50 [6] | inhibition [7] | inhibition [8]
1 | COc1cc2ncnc(Nc3ccc(F)c(Cl)c3)c2cc1B(O)O | > 1000 nM | > 1000 nM | Active | Active | > 1000 nM | 510 nM | Active | –
2 | COCCOc1cc2ncnc(Nc3ccc(B(O)O)cc3)c2cc1OC | > 1000 nM | > 1000 nM | inactive | inactive | 860 nM | > 1000 nM | inactive | Active
3 | COc1cc2ncnc(Nc3cccc(Cl)c3)c2cc1B(O)O | > 1000 nM | > 1000 nM | Active | Active | > 1000 nM | 460 nM | Active | –
4 | COCCOc1cc2ncnc(Nc3cccc(B(O)O)c3)c2cc1OC | > 1000 nM | > 1000 nM | inactive | inactive | 180 nM | > 1000 nM | inactive | Active
5 | O=C(Nc1cccc(C(F)(F)F)c1)c1ccccc1NCc1ccncc1 | > 1000 nM | – | – | – | – | – | – | –
6 | COc1cc2ncnc(Nc3ccc(B(O)O)cc3)c2cc1OC | > 1000 nM | > 1000 nM | inactive | inactive | 36 nM | > 1000 nM | inactive | inactive
7 | COc1cc2ncnc(Nc3ccc(F)c(Cl)c3)c2cc1B1OC(C)(C)C(C)(C)O1 | > 1000 nM | > 1000 nM | Active | Active | > 1000 nM | 520 nM | Active | –
8 | CC1(C)OB(c2ccc3ncnc(Nc4cccc(Cl)c4)c3c2)OC1(C)C | > 1000 nM | > 1000 nM | Active | Active | > 1000 nM | 590 nM | Active | –
9 | COc1cc2ncnc(Nc3cccc(B(O)O)c3)c2cc1OC | > 1000 nM | > 1000 nM | inactive | inactive | 390 nM | > 1000 nM | inactive | inactive
10 | COCCOc1cc2ncnc(Nc3cccc(B(O)O)c3)c2cc1OCCOC | > 1000 nM | > 1000 nM | inactive | inactive | 190 nM | > 1000 nM | inactive | Active
11 | CC1(C)OB(c2ccc3ncnc(Nc4ccc(F)c(Cl)c4)c3c2)OC1(C)C | > 1000 nM | > 1000 nM | Active | Active | > 1000 nM | 570 nM | Active | –
12 | OB(O)c1ccc2ncnc(Nc3cccc(Cl)c3)c2c1 | > 1000 nM | > 1000 nM | Active | Active | > 1000 nM | 650 nM | Active | –
13 | OB(O)c1ccc2ncnc(Nc3ccc(F)c(Cl)c3)c2c1 | > 1000 nM | > 1000 nM | Active | Active | > 1000 nM | 800 nM | Active | –
14 | COCCOc1cc2ncnc(Nc3ccc(B(O)O)cc3)c2cc1OCCOC | > 1000 nM | > 1000 nM | inactive | inactive | 37 nM | > 1000 nM | inactive | Active
15 | COc1cc2ncnc(Nc3cccc(Cl)c3)c2cc1B1OC(C)(C)C(C)(C)O1 | > 1000 nM | > 1000 nM | Active | Active | > 1000 nM | 490 nM | Active | –
